For data set [1] the following is noted: 5-HT3 receptor inhibitors; cited from earlier work.
For data set [2] the following is noted: in vivo; cited from earlier work.
For a further data set, the system named is Salmonella. Particulars: cited from earlier work.
The test system of another data set is gastroenteritis. As to conditions: cited from earlier work.
In the next data set the test system is E. coli toxins. As to conditions: cited from earlier work.
Data set [3] has as its system castor oil-induced diarrhoea. Briefly: castor oil-induced diarrhoea in rats. It is filed as in vivo. As to the method:
The outstanding activity of the combinations of the invention was evidenced on an animal model of experimental diarrhoea. A combination of the invention was evaluated on the castor oil-induced diarrhoea in rats, according to Niemegeers et al. ([…]. (Drug Res), 1974, 24 No. 10). Rats received ondansetron (0.1 mg/kg, p.o.) and racecadotril (40 mg/kg, p.o.) administered together. […] As comparative examples, ondansetron and racecadotril were also administered alone at the same dosages.

The test system of data set [4] is abdominal pain (abdominal cramps elicited by rectal distention). Briefly: abdominal cramps elicited by rectal distention in trinitrobenzenesulfonic acid-pretreated rats. It is filed as in vivo. Particulars: administered alone. From the text:
The combinations of the invention involve a synergy against abdominal pain as the authors of the present invention have discovered using a classical model of abdominal pain in rodents (Morteau et al., Gastroenterology, 1993, 104, 47). Rats were […] trinitrobenzenesulfonic acid to induce intestinal inflammation and pain sensitivity, as assessed by evaluation of the abdominal cramps elicited by rectal distention.

For a further data set, the system named is abdominal cramps. As to conditions: via protection of endogenous opioid peptides; cited from earlier work.
The test system of another data set is colonic transit. Briefly: colonic transit in rodents. Particulars: enkephalinase inhibitor alone. It is filed as in vivo. From the text:
This effect is blocked by co-administration of ondansetron. Since the transit is already strongly accelerated in gastroenteritis, the combinations of the present invention allow the antisecretory pro-absorptive activity of enkephalinase inhibitors to be exerted for a longer time upon the watery intestinal lumen content, thus resulting in a synergic antidiarrheal effect.

For data set [5], the system named is cytochrome P 450 subtypes. Briefly: interaction with cytochrome P 450 subtypes. It is filed as in vitro ADME.
A further data set in a line: drug metabolism pathway. It is filed as in vitro ADME. As to conditions: enkephalinase inhibitors.
In data set [6] the test system is L.P.S. typhimurium-induced diarrhoea. The data set can be described thus: L.P.S. typhimurium-induced diarrhoea. It is filed as in vivo. As to conditions: dexecadotril 0.1 mg/kg alone.
The mark [7] stands for this setting: racecadotril 40 mg/kg p.o. alone.

Results on 4 compounds are retold here after patent publication US8222294B2, “Combinations of an anti emetic agent and an enkephalinase inhibitor” (Bioproject, priority 2004, dated 2012).

“Also recorded” adds a separate entry of the source. Read-outs that look alike come from different tables or passages of the source.

Regarding `CN1C2CCCC1CC(NC(=O)c1nn(C)c3ccccc13)C2` (stereo not drawn) [granisetron], the metabolism pathway entry in data set [1] is given as “oxidation by various cytochrome P 450 subtypes”. In data set [2], the plasma half-life is about 3 h.
As to `Cc1nccn1CC1CCc2c(c3ccccc3n2C)C1=O` (stereo not drawn) [ondansetron], the metabolism pathway entry in [1] is reported as “oxidation by various cytochrome P 450 subtypes”. Moreover, in the data set with Salmonella, the prevention of hypersecretion entry is listed as “prevents the hypersecretion”. Moreover, the diarrhoea entry in the data set on gastroenteritis is given as “not significantly affected or even increased; also recorded: fail to affect diarrhoea; also recorded: increase its duration”. Besides, the emesis entry in the data set on gastroenteritis (particularly in children) is given as “significantly reduced”. Also, the antisecretory activity entry in the data set on E. coli toxins is “not”. For the same compound, the antidiarrheal activity entry in [3] (ondansetron 0.1 mg/kg p.o. alone) and in data set [3] (ondansetron 1 mg/kg alone) was “inactive” throughout. For the same compound, in data set [2], the plasma half-life was about 3 h. Besides, the “prevention of pain manifestations” value in [4] is listed as “partially prevent”.
Turning to `CC(=O)SCC(Cc1ccccc1)C(=O)NCC(=O)OCc1ccccc1` (stereo not drawn) [racecadotril], the antinociceptive effect result in the data set on abdominal cramps was “partial antinociceptive effect”. For the same compound, the abdominal pain entry in the data set with gastroenteritis is recorded as “significantly diminished”. Further, the antisecretory activity entry in the data set on E. coli toxins is on record as “active”. Moreover, the “effect on colonic transit” value with colonic transit is recorded as “tend to accelerate colonic transit”. Moreover, the “interaction with cytochrome P 450 subtypes” value in data set [5] was “do not significantly interact”. In data set [3] (setting [7]), the duration of protection is recorded as 4 h and the protection against diarrhoea entry is “partial protection”. For the same compound, the plasma half-life in data set [2] is about 3 h. Further, the “prevention of pain manifestations” value in [4] is given as “partially prevent”. The metabolism pathway result in “drug metabolism pathway” is “mainly occurs via S-methylation”.
For `CC(=O)SC[C@H](Cc1ccccc1)C(=O)NCC(=O)OCc1ccccc1` [dexecadotril], the antidiarrheal activity result in data set [6] is “an antidiarrheal activity”; in data set [3] (dexecadotril 0.1 mg/kg alone), “an antidiarrheal activity; also recorded: only partially inactive”. In addition, the antisecretory activity entry in the data set on E. coli toxins was “active”. The “interaction with cytochrome P 450 subtypes” value in data set [5] was “do not significantly interact”. Further, the “prevention of pain manifestations” value in [4] is given as “partially prevent”. Further, in “drug metabolism pathway”, the metabolism pathway entry is reported as “mainly occurs via S-methylation”.
